ChEMBL document CHEMBL1201862, “PubChem BioAssay data set” (2004)
Activity calls are given as the source filed them.

How the values were obtained:
[1] = NIH-3T3 fibroblast cytotoxicity, dose response, cytotoxicity control, cell-based, fluorescence, Alamar Blue, secondary assay (AID 2327); format: functional;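 note: NIH-3T3 mouse fibroblasts cultured with fluconazole at 8 µg/mL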
[2] = fluconazole-exposed Candida albicans growth modulators – fluorescence, retest, confirmation (AID 2467); format: functional, cell-based
[3] = target: FAD-linked sulfhydryl oxidase ALR (Homo sapiens, UniProt P55789); assay: ALR-catalysed DTT oxidation blockers – biochemical, H2O2 detection, luminescence, cherry-pick, dose response (AID 493248)
[4] = luciferase reporter signal suppression in cells – H4 neuroglioma cells, luminescence, dose response (AID 1990); format: functional, cell-based
[5] = Luminescence Cell-Based Dose Response HTS to Identify Inhibitors of 5'UTR Stem-Loop Driven Prion Protein mRNA Translation in H4 Neuroglioblastoma Cells. [Related pubchem assays: 1827 (Project Summary), 1813 (Primary HTS)]; format: functional
[6] = alpha-synuclein stem-loop luciferase translation blockers – H4 neuroglioma cells, luminescence, confirmation (AID 1988); format: functional, cell-based
INS1 = assay: INS-1E survival protection against cytokine death – cell-based, luminescence, retest, dose response (AID 449756); format: functional; settings: Rattus norvegicus;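 note: cell death triggered by IL-1 beta plus TNF-alpha plus IFN-gamma mixture; protective hits raise ATP signal compared with cytokine alone wells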
Cytochrome P450 1A2 = target: T1, Cytochrome P450 1A2 (Homo sapiens, UniProt P05177);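 note: PubChem cytochrome P450 panel assay, CYP1A2 panel member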
T1 sequence (P05177 whole entry): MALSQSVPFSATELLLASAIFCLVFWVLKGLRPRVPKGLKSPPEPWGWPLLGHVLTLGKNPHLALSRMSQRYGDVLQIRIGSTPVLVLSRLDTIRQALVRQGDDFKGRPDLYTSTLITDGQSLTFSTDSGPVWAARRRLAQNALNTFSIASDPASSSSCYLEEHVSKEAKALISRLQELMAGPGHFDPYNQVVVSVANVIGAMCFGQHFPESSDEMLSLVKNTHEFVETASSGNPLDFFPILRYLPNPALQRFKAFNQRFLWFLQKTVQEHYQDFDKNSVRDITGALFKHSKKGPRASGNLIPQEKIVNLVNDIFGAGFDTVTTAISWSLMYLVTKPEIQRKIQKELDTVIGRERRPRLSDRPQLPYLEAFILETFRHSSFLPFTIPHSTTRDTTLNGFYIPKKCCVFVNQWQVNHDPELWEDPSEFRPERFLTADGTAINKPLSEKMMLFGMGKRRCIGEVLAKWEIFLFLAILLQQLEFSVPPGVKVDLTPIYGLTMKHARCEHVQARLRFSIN

Cytochrome P450 3A4 = Cytochrome P450 3A4 (Homo sapiens, UniProt P08684);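 note: CYP3A4 tested as one member of a cytochrome P450 panel screen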
[7] = target: T2, Heat shock factor protein 1 (Mus musculus, UniProt P38532); assay: decrease of HSF1-responsive luciferase luminescence – cell-based, NIH3T3, dose retest, confirmation (AID 2382); format: functional;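 note: NIH3T3 fibroblasts with HSF1-driven luciferase reporter stressed by proteasome inhibitor MG132; luminescence from HSF1-driven luciferase expression after 8 hours of MG132 stress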
T2 sequence (P38532 whole entry): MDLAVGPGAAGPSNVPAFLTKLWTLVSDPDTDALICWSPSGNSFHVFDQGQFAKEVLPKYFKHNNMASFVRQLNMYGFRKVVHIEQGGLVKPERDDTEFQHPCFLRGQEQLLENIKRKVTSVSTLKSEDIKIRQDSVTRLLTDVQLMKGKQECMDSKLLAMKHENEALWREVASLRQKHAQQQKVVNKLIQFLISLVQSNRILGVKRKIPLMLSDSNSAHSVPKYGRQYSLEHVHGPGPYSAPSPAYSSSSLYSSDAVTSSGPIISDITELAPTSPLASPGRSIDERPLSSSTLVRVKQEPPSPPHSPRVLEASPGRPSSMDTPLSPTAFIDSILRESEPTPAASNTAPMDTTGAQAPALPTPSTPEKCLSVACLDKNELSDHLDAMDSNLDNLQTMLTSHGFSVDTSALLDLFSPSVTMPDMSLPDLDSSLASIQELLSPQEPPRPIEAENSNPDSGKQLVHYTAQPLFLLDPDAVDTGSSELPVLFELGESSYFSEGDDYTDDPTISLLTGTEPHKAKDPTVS

[8] = Trypanosoma cruzi growth suppression in host cells – NIH3T3 host cells, beta-gal luminescence, confirmation (AID 2044); format: functional, cell-based;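 note: intracellular parasites grown in NIH/3T3 mouse fibroblasts as host cells; luminescent beta-galactosidase reporter signal from transgenic T. cruzi replicating inside host cells; inhibitors lower the luminescence signal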
[9] = NIH3T3 cell viability loss – ATP luminescence, mouse fibroblasts, counter-screen, dose response (AID 2010); format: functional, cell-based; settings: NIH3T3;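 note: cells exposed to compound for about 90 hours before reading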
Cytochrome P450 2C19 = Cytochrome P450 2C19 (Homo sapiens, UniProt P33261); assay: Cytochrome panel assay with activity outcomes. Panel member name: p450-cyp2c19 Compounds with AC50 equal or less than 10 uM are considered active; format: functional; settings: read-out: AC50
Cytochrome P450 2D6 = Cytochrome P450 2D6 (Homo sapiens, UniProt P10635);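 note: CYP2D6 member of a cytochrome P450 panel assay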
[10] = Luminescence Cell-Based Dose Response HTS to Identify Activators of Luciferase Translation or Activity in H4 […] Cells. [Related pubchem assays: 1829 (Project Summary), 1814 (Primary HTS)]; format: functional
H4 = assay: Luminescence Cell-Based Dose Response HTS to Identify Activators of 5'UTR Stem-Loop Driven Prion Protein mRNA Translation in H4 Neuroglioblastoma Cells. [Related pubchem assays: 1829 (Project Summary), 1814 (Primary HTS)]; format: functional; settings: Homo sapiens
[11] = tested on: Streptococcus sp. 'group A'; assay: Streptococcus pyogenes SK(-)GAS viability under kanamycin – luminescence, BacTiterGlo, confirmation, counter-screen for streptokinase expression inhibitor project, dose response (AID 1900); format: functional, organism-based; settings: Streptococcus sp. 'group A'
Streptokinase A = target: T3, Streptokinase A (Streptococcus pyogenes serotype M1, UniProt P10520); assay: viability-normalized secreted streptokinase activity reduction – plasminogen activation absorbance, OD405, dose response (AID 1914); format: functional, Streptococcus pyogenes M1 GAS;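 note: secreted streptokinase activity via plasminogen activation per viability signal from cell pellet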
T3 sequence (P10520 whole entry): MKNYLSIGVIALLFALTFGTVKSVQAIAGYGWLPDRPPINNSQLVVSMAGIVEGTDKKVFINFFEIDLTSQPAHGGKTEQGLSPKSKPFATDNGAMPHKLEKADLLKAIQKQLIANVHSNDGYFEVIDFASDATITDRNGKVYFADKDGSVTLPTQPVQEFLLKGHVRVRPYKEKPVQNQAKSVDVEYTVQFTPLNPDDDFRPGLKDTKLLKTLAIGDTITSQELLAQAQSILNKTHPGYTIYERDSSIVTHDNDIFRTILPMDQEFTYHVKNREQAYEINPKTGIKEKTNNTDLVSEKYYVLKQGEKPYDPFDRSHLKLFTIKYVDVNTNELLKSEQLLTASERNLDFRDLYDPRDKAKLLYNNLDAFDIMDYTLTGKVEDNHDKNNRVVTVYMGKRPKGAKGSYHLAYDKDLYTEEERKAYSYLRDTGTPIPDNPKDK

Streptococcus = assay: GAS UMAA2166 growth inhibition – luminescence, BacTiterGlo, counter-screen for streptokinase expression inhibitor project, dose response (AID 1915); format: functional, organism-based; settings: Streptococcus;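 note: potency for reduction of bacterial viability or growth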

Cytochrome P450 3A4, sequence (P08684 whole entry): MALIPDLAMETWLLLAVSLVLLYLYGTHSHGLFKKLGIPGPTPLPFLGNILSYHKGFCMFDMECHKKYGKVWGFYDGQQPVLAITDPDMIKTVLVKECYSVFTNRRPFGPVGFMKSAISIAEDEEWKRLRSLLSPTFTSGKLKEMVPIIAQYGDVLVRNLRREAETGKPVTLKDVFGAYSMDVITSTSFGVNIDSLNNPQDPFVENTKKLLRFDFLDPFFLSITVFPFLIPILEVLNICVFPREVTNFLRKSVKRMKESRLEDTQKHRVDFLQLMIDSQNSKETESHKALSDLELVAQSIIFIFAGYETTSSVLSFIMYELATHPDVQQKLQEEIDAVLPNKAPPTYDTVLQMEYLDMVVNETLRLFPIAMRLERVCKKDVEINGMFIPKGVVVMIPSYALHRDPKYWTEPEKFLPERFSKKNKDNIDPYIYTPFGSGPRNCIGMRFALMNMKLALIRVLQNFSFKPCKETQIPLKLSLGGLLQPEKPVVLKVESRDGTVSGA
Cytochrome P450 2C19, sequence (P33261 whole entry): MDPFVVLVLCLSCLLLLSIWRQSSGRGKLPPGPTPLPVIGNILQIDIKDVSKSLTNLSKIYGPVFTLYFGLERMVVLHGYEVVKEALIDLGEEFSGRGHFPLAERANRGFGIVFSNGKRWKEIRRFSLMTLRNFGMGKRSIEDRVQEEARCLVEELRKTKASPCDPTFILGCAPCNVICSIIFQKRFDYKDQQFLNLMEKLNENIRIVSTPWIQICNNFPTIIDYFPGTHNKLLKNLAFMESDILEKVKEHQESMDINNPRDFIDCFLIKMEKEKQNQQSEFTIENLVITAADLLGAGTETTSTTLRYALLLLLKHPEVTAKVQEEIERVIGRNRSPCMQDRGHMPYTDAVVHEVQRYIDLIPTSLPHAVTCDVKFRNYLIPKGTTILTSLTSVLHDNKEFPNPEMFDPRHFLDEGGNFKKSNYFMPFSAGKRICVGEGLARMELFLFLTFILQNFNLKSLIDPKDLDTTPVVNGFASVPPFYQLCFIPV
Cytochrome P450 2D6, sequence (P10635 whole entry): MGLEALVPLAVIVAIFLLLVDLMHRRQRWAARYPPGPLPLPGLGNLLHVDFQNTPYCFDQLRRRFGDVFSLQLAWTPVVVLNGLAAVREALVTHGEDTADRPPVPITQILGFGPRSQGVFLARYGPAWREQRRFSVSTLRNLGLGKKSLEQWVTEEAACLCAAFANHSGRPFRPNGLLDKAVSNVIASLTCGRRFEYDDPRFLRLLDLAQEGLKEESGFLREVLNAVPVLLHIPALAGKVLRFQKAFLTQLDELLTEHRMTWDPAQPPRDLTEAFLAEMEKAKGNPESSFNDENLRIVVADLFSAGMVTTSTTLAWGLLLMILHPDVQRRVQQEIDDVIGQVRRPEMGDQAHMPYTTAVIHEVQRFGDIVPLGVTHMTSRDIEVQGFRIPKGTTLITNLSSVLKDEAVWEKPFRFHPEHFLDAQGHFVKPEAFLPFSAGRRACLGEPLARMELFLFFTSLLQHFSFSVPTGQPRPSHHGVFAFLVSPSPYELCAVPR
FAD-linked sulfhydryl oxidase ALR, sequence (P55789 whole entry): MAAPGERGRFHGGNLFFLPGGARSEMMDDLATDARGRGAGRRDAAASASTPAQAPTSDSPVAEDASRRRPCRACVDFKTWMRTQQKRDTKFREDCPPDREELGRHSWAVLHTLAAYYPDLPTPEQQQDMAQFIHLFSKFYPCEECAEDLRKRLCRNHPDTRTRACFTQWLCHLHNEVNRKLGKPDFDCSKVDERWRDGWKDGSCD

SMILES: CCn1cc(C(=O)c2ccccc2)c2ccccc21
- EC50 [1]: > 160 µM (inactive)
- EC50 [2]: 3.63 µM (active)

SMILES: O=C(O)c1ccc(N/N=C/c2cn(-c3ccccc3)nc2-c2cccs2)cc1
- AC50 [3]: 3.74 µM (active)

SMILES: Cc1cc(C)c(NC(=O)CCN2CCN(Cc3ccccc3)CC2)c(C)c1
- EC50 [4]: > 120 µM (not active)
- EC50 [5]: > 120 µM (not active)
- EC50 [6]: > 120 µM (not active)

SMILES: CCn1c2ccccc2c2cc(NC(=O)C(C)C)ccc21
- EC50 [1]: 63.3 µM (active)
- EC50 [2]: > 38 µM (not active)

SMILES: CCN(CC)c1ccc(/C=N/NC(=O)Cc2cccs2)c(O)c1
- AC50 (INS1): 0.916 µM (active)

SMILES: CN1CCN(c2ncc3ncc(=O)n(Cc4ccc(F)cc4)c3n2)CC1
- AC50 (Cytochrome P450 1A2): 25.1 µM (inconclusive)
- AC50 (Cytochrome P450 3A4): 15.8 µM (inconclusive)

SMILES: CSc1nccn1C(=O)c1ccccc1[N+](=O)[O-]
- EC50 [7]: > 195 µM (not active)

SMILES: N#Cc1cccn1-c1nccs1
- EC50 [7]: > 195 µM (not active)

SMILES: COc1ccccc1Nc1ccc2nonc2c1[N+](=O)[O-]
- EC50 [7]: > 195 µM (not active)

SMILES: Cc1cc(C)c2cc(CN(CCO)C(=O)Nc3ccc(F)cc3)c(O)nc2c1
- EC50 [4]: 18.3 µM (active)
- EC50 [5]: > 120 µM (not active)
- EC50 [6]: > 120 µM (not active)

SMILES: Cc1ccc2c(c1)S/C(=C/c1ccc[n+](CCO)c1)N2C
- EC50 [8]: 0.832 µM (active)
- EC50 [9]: > 60 µM (not active)
- AC50 (INS1): 2.98 µM (active)

SMILES: CN1/C(=C\P(=O)(N(C)C)N(C)C)C(C)(C)c2ccccc21
- EC50 [8]: 2.96 µM (active)
- EC50 [9]: > 60 µM (not active)
- AC50 (INS1): 4.32 µM (active)

SMILES: N[C@@](C(=O)O)(c1ccc(P(=O)(O)O)cc1)C1CC1
- AC50 (Cytochrome P450 2C19): 25.1 µM (inconclusive)
- AC50 (Cytochrome P450 1A2): 50.1 µM (inconclusive)

SMILES: COc1ccccc1N1CCN(C(=O)C(NS(=O)(=O)c2cccs2)c2ccccc2)CC1 (configuration not stated)
- AC50 (Cytochrome P450 2D6): 15.8 µM (inconclusive)
- AC50 (Cytochrome P450 1A2): 2.51 µM (inconclusive)

SMILES: Cc1ccc(C(=O)CSc2cnc3ccccc3n2)cc1C
- EC50 [7]: 4.3 µM (active)

SMILES: Oc1cccc(Nc2ncnc3c2oc2ccccc23)c1
- EC50 [1]: > 160 µM (inactive)
- EC50 [2]: 3.71 µM (active)

SMILES: O=C(Nc1ccccc1)OCCOc1ccccc1
- EC50 [10]: 30.2 µM (active)
- EC50 (H4): 93.6 µM (active)
- EC50 [7]: > 195 µM (not active)

SMILES: CC(OC(=O)CN1C(=O)c2ccccc2C1=O)C(=O)NC1CCCCC1C (configuration not stated)
- EC50 [7]: > 195 µM (not active)

SMILES: CCOC(=O)c1c(NC(=O)c2ccccc2)sc2c(O)c(CN(CC)CC)ccc12
- EC50 [7]: > 195 µM (not active)

SMILES: CCOC(=O)c1nnc2cc(-c3ccc(Br)cc3)nn2c1C
- EC50 [10]: 27.6 µM (active)
- EC50 (H4): 88.8 µM (active)

SMILES: COc1ccc(/N=C/c2ccc(CNS(=O)(=O)c3ccc(Cl)cc3)o2)cc1
- AC50 (Cytochrome P450 2C19): 11.2 µM (inconclusive)
- AC50 (Cytochrome P450 1A2): 25.1 µM (inconclusive)
- AC50 (Cytochrome P450 3A4): 31.6 µM (inconclusive)

SMILES: CCCC(NC(=O)COc1cc2c(c3oc(=O)cc(C)c13)CCC(C)(C)O2)C(=O)O (configuration not stated)
- EC50 [7]: > 195 µM (not active)

SMILES: COc1cccc(NC(=O)Nc2nnc(Cc3ccccc3F)s2)c1
- EC50 [7]: > 195 µM (not active)

SMILES: O=C(N1CCOCC1)C12CCC3CC(CC(C3)C1)C2
- EC50 [7]: > 195 µM (not active)

SMILES: Cc1cc(Nc2cccc(Cl)c2)nc(-c2ccccc2O)n1
- EC50 [7]: > 195 µM (not active)

SMILES: Cc1ccccc1Nc1ncccc1C(=O)N1CCOCC1
- EC50 [1]: > 160 µM (inactive)
- EC50 [2]: > 38 µM (not active)

SMILES: Cc1cc(C)c(S(C)(=O)=O)c(Oc2ccc(C(C)(C)C)cc2)n1
- EC50 [4]: 15.7 µM (active)
- EC50 [5]: 1.08 µM (active)
- EC50 [6]: 80.7 µM (active)
- AC50 (Cytochrome P450 3A4): 14.1 µM (inconclusive)

SMILES: CCOc1ccc2c(ccc(/C=C/c3cc(C)c4cccnc4c3O)[n+]2C)c1
- AC50 (Cytochrome P450 2D6): 3.16 µM (inconclusive)
- AC50 (Cytochrome P450 1A2): 6.31 µM (inconclusive)

SMILES: Nc1ncccc1OCc1cccc(C(F)(F)F)c1
- EC50 [4]: > 120 µM (not active)
- EC50 [5]: > 120 µM (not active)
- EC50 [6]: > 120 µM (not active)

SMILES: O=C(N/N=C/c1ccccc1O)NC12CC3CC(CC(C3)C1)C2
- EC50 [10]: 28.5 µM (active)
- EC50 [11]: 22.3 µM (active)
- EC50 (H4): > 120 µM (not active)
- EC50 (Streptokinase A): > 150 µM (not active)
- EC50 (Streptococcus): 15.1 µM (active)

SMILES: CCCCn1c(N(CCOC(C)=O)C(C)=O)nc2ccccc21
- EC50 [7]: > 195 µM (not active)

SMILES: CCOC(=O)c1cc(CC)sc1NC=C1C(=O)CCCC1=O
- EC50 [7]: > 195 µM (not active)

SMILES: CCOc1cc(/C=N/NC(=O)c2cccnc2)ccc1OCC(N)=O
- EC50 [1]: > 150 µM (inactive)
- EC50 [2]: > 38 µM (not active)

SMILES: O=c1c2c3c(sc2nc(NCCOCCO)n1Cc1ccco1)CCCCC3
- EC50 [7]: > 195 µM (not active)

SMILES: CCOC(=O)C1CCN(C(=O)CCS(=O)(=O)c2ccc3c(c2)CC(C)N3C(=O)CC)CC1 (configuration not stated)
- EC50 [7]: > 195 µM (not active)

SMILES: Fc1ccc(N/N=C/c2cccnc2)c(F)c1
- EC50 [1]: 16.3 µM (inconclusive)
- EC50 [2]: > 38 µM (not active)

SMILES: COC(CN(C)C(=O)c1ccc2c(c1)NC(=O)c1ccccc1S2)OC
- EC50 [1]: > 150 µM (inconclusive)
- EC50 [2]: > 38 µM (not active)

SMILES: Cc1cc(Oc2ccccc2)nc(-c2ccccc2O)n1
- EC50 [1]: > 150 µM (inconclusive)
- EC50 [2]: > 38 µM (not active)
